One assay concerns Escherichia coli K-12. Briefly: Minimum inhibitory concentration, agar dilution-streak method. Format: cell-based. Conditions: K12, E. coli K-12, nutrient agar, 37° C, 18 hours. Here is the method:
(§1) The minimum inhibitory concentrations (mcg/ml) of the new compounds 1-N-((S)-γ-amino-α-hydroxybutyryl)-3'-deoxykanamycin A (abbreviated as S-AHB-DKA); 1-N-((SR)-β-amino-α-hydroxypropionyl)-3'-deoxykanamycin A (abbreviated as SR-AHP-DKA); 1-N-((S)-δ-amino-α-hydroxyvaleryl)-3'-deoxykanamycin A (abbreviated as S-AHV-DKA); and 1-N-((S)-γ-amino-α-hydroxybutyryl)-6'-N-methyl-3'-deoxykanamycin A (abbreviated as S-AHB-MDKA) against various organisms were determined according to agar dilution-streak method (nutrient agar) at 37° C, the estimation being made after 18 hours incubation. For the comparison purpose, the minimum inhibitory concentrations (mcg/ml) of the parent antibiotic 3'-deoxykanamycin A, as well as 1-N-((S)-γ-amino-α-hydroxybutyryl)kanamycin A (abbreviated as AHB-KMA) which is known from U.S. Pat. No. 3,781,268 were also determined in the same manner as stated above.

Assay [1] deals with Escherichia coli K-12 JR66/W677. The description is as above. To be noted: K12JR66/W677, 18 h, read-out: Minimum Inhibitory Concentration. Format: cell-based. Here is the method: as §1
The test system of assay [2] is Escherichia coli K-12 ML 1629. Described as above. Format: cell-based. Conditions: K12ML1629, E. coli K-12 ML 1629, nutrient agar, 37° C, 18 hours. Here is the method: as §1
Assay [3] relates to Escherichia coli K-12 ML 1630. Described as above. The assay is classed as cell-based. Conditions: K12ML1630, E. coli K-12 ML 1630, nutrient agar, 37° C, 18 hours. Here is the method: as §1
Assay [4] relates to Pseudomonas aeruginosa GN315. The description is as above. Format: cell-based. To be noted: P. aeruginosa GN315, nutrient agar, 37° C, 18 hours. Here is the method:
as §1

Assay [5] relates to Pseudomonas aeruginosa A3. The assay is described as above. Format: cell-based. Conditions: P. aeruginosa A3, nutrient agar, 37° C, 18 hours. On the procedure:
as §1

The subject of assay [6] is Escherichia coli K-12 LA 290 R55. The description is as above. Format: cell-based. To be noted: K12LA290R55, 18 h, read-out: Minimum Inhibitory Concentration. Here is the method: as §1
The subject of assay [7] is Staphylococcus aureus FDA 209P. Described as above. The assay is classed as cell-based. Conditions: FDA209P, S. aureus FDA 209P, nutrient agar, 37° C, 18 hours. On the procedure: as §1
The test system of assay [8] is Escherichia coli K-12 W677. The assay is described as above. The assay is classed as cell-based. Conditions: K12W677, E. coli K-12 W677, nutrient agar, 37° C, 18 hours. On the procedure:
as §1

Assay [9] deals with Escherichia coli K-12 ML 1410. The assay is described as above. Format: cell-based. Conditions: K12ML1410, E. coli K-12 ML 1410, nutrient agar, 37° C, 18 hours. Here is the method:
as §1

Assay [10] deals with Pseudomonas aeruginosa No. 12. Described as above. To be noted: P. aeruginosa No. 12, nutrient agar, 37° C, 18 hours. The assay is classed as cell-based. On the procedure: as §1
Assay [11] concerns drug-resistant bacteria capable of producing the 3'-phosphotransferase. To be noted: 3'-phosphotransferase producers; cited from earlier work.
The subject of assay [12] is various kanamycin-resistant bacteria and Pseudomonas aeruginosa (for example, Pseudomonas aeruginosa GN 315) capable of producing the 6'-acetyltransferase. To be noted: 6'-acetyltransferase producers; cited from earlier work.
Assay [13] concerns kanamycin-resistant bacteria and ribostamycin-resistant bacteria. To be noted: cited from earlier work.

Values after ≈ are worked out from the molar mass of the structure shown. Where only a bound is given, the exact number is not on record here.

`CNC[C@H]1O[C@H](O[C@H]2[C@H](O)[C@@H](O[C@H]3O[C@H](CO)[C@@H](O)[C@H](N)[C@H]3O)[C@H](NC(=O)[C@@H](O)CCN)C[C@@H]2N)[C@H](O)C[C@@H]1O` [S-AHB-MDKA, 1-N-((S)-γ-amino-α-hydroxybutyryl)-6'-N-methyl-3'-deoxykanamycin A]: the MIC with Escherichia coli K-12 was 0.39 µg/mL (≈ 0.668 µM); in [1] it was 1.56 µg/mL (≈ 2.67 µM); in assay [2] it was 1.56 µg/mL (≈ 2.67 µM); in [3], 0.78 µg/mL (≈ 1.34 µM); in assay [4], 6.25 µg/mL (≈ 10.7 µM); in assay [5], 3.12 µg/mL (≈ 5.35 µM). The MIC in assay [6] is 1.56 µg/mL (≈ 2.67 µM); in assay [7] it was 0.78 µg/mL (≈ 1.34 µM); in [8] it was 3.12 µg/mL (≈ 5.35 µM); in [9], 0.78 µg/mL (≈ 1.34 µM); in assay [10] it was 3.12 µg/mL (≈ 5.35 µM).
`NCCC[C@H](O)C(=O)N[C@@H]1C[C@H](N)[C@@H](O[C@H]2O[C@H](CN)[C@@H](O)C[C@H]2O)[C@H](O)[C@H]1O[C@H]1O[C@H](CO)[C@@H](O)[C@H](N)[C@H]1O` [S-AHV-DKA, 1-N-((S)-δ-amino-α-hydroxyvaleryl)-3'-deoxykanamycin A]: the MIC in the assay on Escherichia coli K-12 is 0.78 µg/mL (≈ 1.34 µM); in assay [1], 3.12 µg/mL (≈ 5.35 µM); in [2], 1.56 µg/mL (≈ 2.67 µM); in [3], 1.56 µg/mL (≈ 2.67 µM); in assay [4] it was greater than 100 µg/mL; in assay [5], 3.12 µg/mL (≈ 5.35 µM). For the same compound, the MIC in assay [6] was found to be 3.12 µg/mL (≈ 5.35 µM); in [7], 0.78 µg/mL (≈ 1.34 µM); in assay [8], 3.12 µg/mL (≈ 5.35 µM); in assay [9], 3.12 µg/mL (≈ 5.35 µM); in assay [10] it was 6.25 µg/mL (≈ 10.7 µM).
On to `NC[C@@H]1CC[C@@H](N)[C@@H](O[C@H]2[C@H](O[C@@H]3O[C@H](CO)[C@@H](O)[C@H]3O)[C@@H](O)[C@H](N)C[C@@H]2N)O1` [3',4'-dideoxyribostamycin], for which the “effectiveness against drug-resistant bacteria” value (from here on “effectiveness”) in assay [11] is given as “practically effective against the drug-resistant bacteria”.
With `CNC[C@@H]1CC[C@@H](N)[C@@H](O[C@H]2[C@H](O)[C@@H](O[C@H]3O[C@H](CO)[C@@H](O)[C@H](N)[C@H]3O)[C@H](N)C[C@@H]2N)O1` [6'-N-methyl-3',4'-dideoxykanamycin B], the “activity against resistant bacteria” value in assay [12] is “active against various kanamycin-resistant bacteria and Pseudomonas aeruginosa”.
As to `NC[C@H]1O[C@H](O[C@H]2[C@H](O)[C@@H](O[C@H]3O[C@H](CO)[C@@H](O)[C@H](N)[C@H]3O)[C@H](N)C[C@@H]2N)[C@H](O)C[C@@H]1O` [DKA, 3'-deoxykanamycin A], the MIC was 3.12 µg/mL (≈ 6.66 µM) with Escherichia coli K-12; greater than 100 µg/mL in assay [1]; 3.12 µg/mL (≈ 6.66 µM) in [2]; 3.12 µg/mL (≈ 6.66 µM) in assay [3]; greater than 100 µg/mL in [4]; 3.12 µg/mL (≈ 6.66 µM) in [5]. The MIC is 3.12 µg/mL (≈ 6.66 µM) in assay [6]; 1.56 µg/mL (≈ 3.33 µM) in assay [7]; 3.12 µg/mL (≈ 6.66 µM) in assay [8]; 3.12 µg/mL (≈ 6.66 µM) in [9]; 12.5 µg/mL (≈ 26.7 µM) in [10]. Also, the “effectiveness” value in assay [11] is listed as “practically effective against the drug-resistant bacteria”.
As for `CNC[C@H]1O[C@H](O[C@H]2[C@H](O)[C@@H](O[C@H]3O[C@H](CO)[C@@H](O)[C@H](N)[C@H]3O)[C@H](N)C[C@@H]2N)[C@H](N)C[C@@H]1O` [6'-N-methyl-3'-deoxykanamycin B], the “activity against resistant bacteria” value in assay [12] is “active against various kanamycin-resistant bacteria and Pseudomonas aeruginosa”.
As to `NC[C@@H]1CC[C@@H](N)[C@@H](O[C@H]2[C@H](O)[C@@H](O[C@H]3O[C@H](CO)[C@@H](O)[C@H](N)[C@H]3O)[C@H](N)C[C@@H]2N)O1` [3',4'-dideoxykanamycin B], the “effectiveness” value in [11] is given as “practically effective against the drug-resistant bacteria”.
As for `NCC[C@H](O)C(=O)N[C@@H]1C[C@H](N)[C@@H](O[C@H]2O[C@H](CN)[C@@H](O)[C@H](O)[C@H]2O)[C@H](O)[C@H]1O[C@H]1O[C@H](CO)[C@@H](O)[C@H](N)[C@H]1O` [AHB-KMA, 1-N-((S)-γ-amino-α-hydroxybutyryl)kanamycin A, reference compound], the MIC with Escherichia coli K-12 is 0.78 µg/mL (≈ 1.33 µM); in assay [1] it was 3.12 µg/mL (≈ 5.33 µM); in assay [2], 0.78 µg/mL (≈ 1.33 µM); in assay [3], 1.56 µg/mL (≈ 2.66 µM); in assay [4], 100 µg/mL (≈ 171 µM); in [5] it was 3.12 µg/mL (≈ 5.33 µM). Moreover, the MIC amounted to 0.78 µg/mL (≈ 1.33 µM) in [6]; 0.78 µg/mL (≈ 1.33 µM) in assay [7]; 0.78 µg/mL (≈ 1.33 µM) in [8]; 0.78 µg/mL (≈ 1.33 µM) in assay [9]; 6.25 µg/mL (≈ 10.7 µM) in [10].
In the case of `NCC[C@H](O)C(=O)N[C@@H]1C[C@H](N)[C@@H](O[C@H]2O[C@H](CN)[C@@H](O)C[C@H]2O)[C@H](O)[C@H]1O[C@H]1O[C@H](CO)[C@@H](O)[C@H](N)[C@H]1O` [S-AHB-DKA, 1-N-((S)-γ-amino-α-hydroxybutyryl)-3'-deoxykanamycin A], the MIC against Escherichia coli K-12 stood at 0.39 µg/mL (≈ 0.685 µM); in assay [1] it was 0.78 µg/mL (≈ 1.37 µM); in [2], 0.39 µg/mL (≈ 0.685 µM); in assay [3], 0.78 µg/mL (≈ 1.37 µM); in assay [4], 100 µg/mL (≈ 176 µM); in assay [5] it was 3.12 µg/mL (≈ 5.48 µM). For the same compound, the MIC in assay [6] was 0.78 µg/mL (≈ 1.37 µM); in [7] it was 0.39 µg/mL (≈ 0.685 µM); in assay [8], less than 0.2 µg/mL; in assay [9], 0.39 µg/mL (≈ 0.685 µM); in assay [10] it was 3.12 µg/mL (≈ 5.48 µM).
In the case of `NCC(O)C(=O)N[C@@H]1C[C@H](N)[C@@H](O[C@H]2O[C@H](CN)[C@@H](O)C[C@H]2O)[C@H](O)[C@H]1O[C@H]1O[C@H](CO)[C@@H](O)[C@H](N)[C@H]1O` (stereo partly drawn) [SR-AHP-DKA, 1-N-((SR)-β-amino-α-hydroxypropionyl)-3'-deoxykanamycin A], the MIC with Escherichia coli K-12 is 0.39 µg/mL (≈ 0.702 µM); in [1], 1.56 µg/mL (≈ 2.81 µM); in [2], 0.78 µg/mL (≈ 1.4 µM); in assay [3] it was 0.78 µg/mL (≈ 1.4 µM); in [4], greater than 100 µg/mL; in assay [5], 3.12 µg/mL (≈ 5.62 µM). Further, the MIC turned out to be 1.56 µg/mL (≈ 2.81 µM) in assay [6]; 0.78 µg/mL (≈ 1.4 µM) in assay [7]; 0.78 µg/mL (≈ 1.4 µM) in assay [8]; 0.78 µg/mL (≈ 1.4 µM) in [9]; 6.25 µg/mL (≈ 11.2 µM) in [10].
In the case of `NCC[C@H](O)C(=O)N[C@@H]1C[C@H](N)[C@@H](O[C@H]2O[C@H](CN)[C@@H](O)[C@H](O)[C@H]2N)[C@H](O[C@@H]2O[C@H](CO)[C@@H](O)[C@H]2O)[C@H]1O` [butirosin B, 1-N-((S)-α-hydroxy-γ-amino-n-butyryl)-5-O-β-D-ribofuranosylneamine], the “activity against resistant bacteria” value in assay [13] was “active against some kanamycin-resistant bacteria and some ribostamycin-resistant bacteria”.

The values above are taken from patent publication US4104372A, “1-N-(α-hydroxy-ω-aminoalkanoyl) derivatives of 3'-deoxykanamycin A and the production thereof” (Zaidan Hojin Biseibutsu Kagaku Kenkyu Kai, priority 1975, dated 1978).
